The values below are quoted from earlier work in patent US20250221905A1, “HAIR CARE COMPOSITION” (Conopco, Inc., d/b/a UNILEVER, priority 2022, published 2025).

One data set relates to 5α-reductase. The following applies: background statement.
The conditions of data set [1]: supplier Croda.

As for `CCCCCCCC(=O)NCC(=O)O` [Capryloyl glycine, N-(1-oxooctyl) glycine], the “sebum excess action modeled by 5α-reductase evaluation” value in the data set with 5α-reductase is reported as “reduce sebum excess action”.
For the compound Oleth-20 [Brij O20], in data set [1], the HLB value was 15.5.
Polysorbate 85 [Tween 85]: the HLB value in data set [1] is recorded as 11.
In the case of Steareth-2 [Brij S2], the HLB value in data set [1] was 4.9.
